Source: ChEMBL document CHEMBL1201862, “PubChem BioAssay data set” (2004)
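48-hour exposure; five concentrations; linearly interpolated endpoints. GI50 marks 50% less growth.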 Calls of active or inactive are those of the source. Rule as the data show it: active = GI50 up to about 1.1 µM and inactive = higher.

What was measured:
Test in all cases: DTP human tumour cell line panel, 48 h
DLD-1 = test system: DLD-1
DMS-114 = test system: DMS-114
KM-20L2 = test system: KM-20L2
LXFL 529 = test system: LXFL 529
M19-MEL = test system: M19-MEL
RXF 631 = test system: RXF 631
SNB-78 = test system: SNB-78
XF498 = test system: XF498
DMS-273 = test system: DMS-273

Measured: GI50

[N-]=[N+]=Nc1nnc(CCCCc2nnc(N=[N+]=[N-])o2)o1
inactive: DLD-1 > 100 µM | DMS-114 > 100 µM | KM-20L2 > 100 µM | LXFL 529 > 100 µM | M19-MEL > 100 µM | RXF 631 25.4 µM | SNB-78 > 100 µM | XF498 > 100 µM

N#Cc1cc([N+](=O)[O-])ccc1NC(=O)C(F)(F)F
inactive: DLD-1 > 58.9 µM | DMS-114 > 40.8 µM | DMS-273 > 100 µM | KM-20L2 > 74.5 µM | LXFL 529 > 100 µM | M19-MEL > 100 µM | SNB-78 > 100 µM | XF498 > 100 µM

COC(=O)C(=O)C(C(=O)C(=O)Nc1cc([N+](=O)[O-])ccc1[N+](=O)[O-])c1nc2ccc(C(=O)c3ccccc3)cc2nc1O (stereo not given)
inactive: DLD-1 52.2 µM | DMS-114 23.2 µM | DMS-273 22.4 µM | LXFL 529 23.4 µM | M19-MEL 28.4 µM | RXF 631 49.3 µM | SNB-78 19.2 µM | XF498 3.36 µM

CN/N=C(\C(=O)Nc1ccc(C(F)(F)F)cc1[N+](=O)[O-])C(c1cnc2ccc([N+](=O)[O-])cc2n1)[N+](=O)[O-] (stereo not given)
inactive: DLD-1 > 100 µM | DMS-114 10.4 µM | LXFL 529 21.8 µM | M19-MEL 10.9 µM | SNB-78 61.7 µM

Cc1cc2c(C)n(Cc3ccc(Cl)cc3Cl)nc2c(C#N)c1C
inactive: DLD-1 > 100 µM | DMS-114 36.4 µM | DMS-273 50.8 µM | KM-20L2 36.5 µM | LXFL 529 59.6 µM | M19-MEL 73.8 µM | SNB-78 24.4 µM | XF498 15.8 µM

CC1(C)OC2C(=O)OC(COCc3ccccc3)C2O1 (stereo not given)
inactive: DLD-1 > 100 µM | DMS-273 > 100 µM | KM-20L2 > 100 µM | LXFL 529 > 100 µM | M19-MEL > 100 µM | RXF 631 > 100 µM | SNB-78 > 100 µM

Nc1nc2c(ncn2Cc2ccccc2CCO)c(=O)[nH]1
inactive: DMS-114 > 100 µM | DMS-273 > 100 µM | KM-20L2 > 100 µM | LXFL 529 > 100 µM | M19-MEL > 100 µM | RXF 631 > 100 µM | XF498 > 100 µM

COc1ccc(C2Oc3c(c(O)cc4c3[C@H](c3ccc(O)cc3O)[C@H](O)C(c3ccc(O)c(O)c3)O4)C[C@@H]2O)cc1O (stereo not given in full)
inactive: DLD-1 > 100 µM | DMS-114 > 100 µM | DMS-273 > 100 µM | KM-20L2 > 100 µM | LXFL 529 > 100 µM | M19-MEL > 100 µM | SNB-78 > 100 µM

COC(=O)C(=O)C(C(C)=O)C(=O)NCc1ccc(OC)c(OC)c1 (stereo not given)
inactive: DLD-1 > 100 µM | DMS-114 > 100 µM | DMS-273 > 100 µM | KM-20L2 > 100 µM | LXFL 529 > 100 µM | M19-MEL > 100 µM | RXF 631 > 100 µM | SNB-78 > 100 µM | XF498 > 100 µM

Oc1nc2cc(Cl)ccc2nc1/C(=N\Nc1ccccc1)C(O)c1ccc(Cl)c(Cl)c1 (stereo not given)
inactive: DLD-1 > 100 µM | DMS-114 > 100 µM | DMS-273 > 100 µM | KM-20L2 > 100 µM | LXFL 529 > 100 µM | M19-MEL > 100 µM | RXF 631 > 100 µM | SNB-78 > 100 µM

COc1ccc(OC)c(NC(=O)C(=O)C(C(C)=O)c2nc3ccc(Cl)cc3nc2O)c1 (stereo not given)
inactive: DLD-1 > 50 µM | DMS-114 > 50 µM | DMS-273 > 50 µM | KM-20L2 > 50 µM | LXFL 529 > 50 µM | M19-MEL > 50 µM | RXF 631 > 50 µM | SNB-78 > 50 µM | XF498 > 50 µM

COC(=O)c1cc(C(=O)OC)c(CC(=O)C(=O)NC2C3CC4CC(C3)CC2C4)nc1CC(=O)C(=O)NC1C2CC3CC(C2)CC1C3 (stereo not given)
inactive: DLD-1 > 100 µM | DMS-114 > 100 µM | DMS-273 > 100 µM | KM-20L2 > 100 µM | LXFL 529 > 100 µM | M19-MEL > 100 µM | SNB-78 > 100 µM

Clc1cccc(C2SCc3nc4ccccc4n32)c1 (stereo not given)
inactive: DLD-1 15.8 µM | LXFL 529 19.9 µM | M19-MEL 19.4 µM | SNB-78 22.1 µM

COC1(OC)CC2CCCCC2=C(C)N1S(=O)(=O)c1ccccc1 (stereo not given)
inactive: DLD-1 > 100 µM | DMS-273 > 100 µM | KM-20L2 > 100 µM | LXFL 529 > 100 µM | M19-MEL > 100 µM | RXF 631 > 100 µM | SNB-78 > 100 µM | XF498 > 100 µM

Cc1csc2nc(-c3ccncc3)cn12
inactive: DLD-1 > 63.1 µM | DMS-114 > 42.1 µM | DMS-273 19.7 µM | KM-20L2 > 65 µM | LXFL 529 > 51.3 µM | M19-MEL > 59.6 µM | RXF 631 > 88.3 µM | SNB-78 > 100 µM | XF498 > 100 µM

COC(=O)/C(=N/NC(C)(C)C)C(C(=O)C=C(C)C)C(=O)C(=O)Nc1ccc(Cl)cc1C (stereo not given)
inactive: DMS-114 > 100 µM | KM-20L2 > 100 µM | LXFL 529 > 100 µM | M19-MEL > 100 µM | SNB-78 > 10 µM | XF498 > 100 µM

O=C(Nc1ccc(Br)cc1)C(=O)C(C(=O)c1ccc(Cl)c(Cl)c1)C1OC(=O)c2ccccc21 (stereo not given)
inactive: DLD-1 18.3 µM | DMS-114 10.9 µM | DMS-273 19.1 µM | KM-20L2 33 µM | LXFL 529 9.98 µM | M19-MEL 15 µM | SNB-78 17.1 µM | XF498 13.8 µM

CCN(CC)c1ccc(/N=N/c2ccc(-c3nc4cccn(C)c-4n3)cc2)cc1
inactive: DLD-1 4.83 µM | DMS-114 3.61 µM | DMS-273 3.18 µM | KM-20L2 5.32 µM | LXFL 529 3.95 µM | M19-MEL 5.38 µM | RXF 631 3.41 µM | SNB-78 16.7 µM | XF498 14.1 µM
